Laboratory results taken from publication PMC9368981, “The γ-Core Motif Peptides of AMPs from Grasses Display Inhibitory Activity against Human and Plant Pathogens” (International Journal of Molecular Sciences, 2022).
Where a SMILES comes first, the peptide text is derived from it.

How the values were obtained:
F. oxysporum VKM F-137 = test: Growth inhibition of F. oxysporum in microtiter plates; assay type: cell-based, Fusarium oxysporum; conditions: 300 µM peptide; spores in half-strength potato dextrose broth, 38 h, absorbance 595 nm; vs control without peptide; triplicate, mean
Procedure: (§1) The antimicrobial activity of synthetic peptides was tested against a panel of human and plant pathogens. Among them were the yeasts Candida albicans VKM Y-2994 and Cryptococcus neoformans VKM Y-2755, the plant pathogenic bacteria Clavibacter michiganensis subsp. michiganensis VKM Ac-1403, Pseudomonas savastanoi pv. savastanoi VKM B-1546 and Pectobacterium carotovorum subsp. carotovorum VKM B-1247, and four Fusarium species (F. oxysporum VKM F-137, F. culmorum VKM F-2303, F. solani VKM F-142 and F. verticillioides VKM F-670), which cause diseases in plants and humans. The antimicrobial activity was first measured at the peptide concentration of 300 µM (Figure 3).
(§2) The antimicrobial activity of synthetic peptides was tested against the yeasts Candida albicans VKM Y-2994 and Cryptococcus neoformans VKM Y-2755, the bacteria Pseudomonas savastanoi pv. savastanoi VKM B-1546, Pectobacterium carotovorum subsp. carotovorum VKM B-1247 and Clavibacter michiganensis subsp. michiganensis VKM Ac-1403, and four Fusarium species: F. culmorum VKM F-2303, F. oxysporum VKM F-137, F. solani VKM F-142 and F. verticillioides VKM F-670. All cultures were obtained from the All-Russian Collection of Microorganisms (VKM). […] The antimicrobial activity of the peptides was measured in immunoassay microtiter plates according to the protocol of Broekaert et al.. […]

F. culmorum VKM F-2303 = test: Growth inhibition of F. culmorum in microtiter plates; assay type: cell-based, Fusarium culmorum; conditions: 300 µM peptide; spores in half-strength potato dextrose broth, 38 h, absorbance 595 nm; vs control without peptide; triplicate, mean
Procedure: as §1, §2

[1] = tested on: F. verticillioides VKM F-670; assay type: cell-based, Fusarium verticillioides; conditions: 300 µM peptide; spores in half-strength potato dextrose broth, 38 h, absorbance 595 nm; vs control without peptide; triplicate, mean
Procedure: as §1
(§3) The antimicrobial activity of synthetic peptides was tested against the yeasts Candida albicans VKM Y-2994 and Cryptococcus neoformans VKM Y-2755, the bacteria Pseudomonas savastanoi pv. savastanoi VKM B-1546, Pectobacterium carotovorum subsp. carotovorum VKM B-1247 and Clavibacter michiganensis subsp. michiganensis VKM Ac-1403, and four Fusarium species: F. culmorum VKM F-2303, F. oxysporum VKM F-137, F. solani VKM F-142 and F. verticillioides VKM F-670. All cultures were obtained from the All-Russian Collection of Microorganisms (VKM). The details of the production and storage of cultures of microorganisms used in this study are described at the VKM Home page. Antimicrobial assays were accomplished according to the procedure described earlier. In short, yeasts were grown on the YPD-P medium and the bacteria P. carotovorum and Cl. michiganensis were cultured on a modified YPD-P medium. The Fusarium fungi were grown on potato dextrose agar at 25 °C for 7–8 days, and spores were washed off from the surface of the mycelia with sterile, distilled water. The antimicrobial activity of the peptides was measured in immunoassay microtiter plates according to the protocol of Broekaert et al.. With yeasts and bacteria, each well contained 10 µL of the tested peptide solution (final concentrations of 10–300 µM) in water, 80 µL of the medium and 10 µL of the microbial suspension. The plates were incubated at 30 °C for 24 h, and the absorbance of the suspension was measured on an Efos 9305 spectrophotometer (Sapphire, Moscow, Russia) at 594 nm. For Fusarium species, the wells of a microtiter plate were filled with 90 µL of the fungal spore suspension in half-strength potato dextrose broth at a concentration of 2000–3000 spores in 100 µL and 10 µL of aqueous solutions of peptides at final concentrations of 10–300 µM. After 38 h of incubation, the absorbance was recorded at 595 nm on a FilterMax F5 Multi-Mode Microplate Reader (Molecular Devices, San Jose, CA, USA). Antimicrobial activity is expressed in IC50 values, which show the concentration necessary for 50% inhibition of the pathogen growth; this was determined from a graph showing the activity dependence on peptide concentration.
(§4) For each pathogen, experiments on the peptide antimicrobial activity evaluation were carried out in triplicate per treatment. Mean values, standard deviations (SD), and the significance of differences (p ≤ 0.05) of the means between treatments and controls (t-test for independent variables) were determined using STATISTICA v. 6.1 software (StatSoft Inc., Tulsa, OK, USA).

F. solani VKM F-142 = test: Growth inhibition of F. solani in microtiter plates; assay type: cell-based, Fusarium solani; conditions: 300 µM peptide; spores in half-strength potato dextrose broth, 38 h, absorbance 595 nm; vs control without peptide; triplicate, mean
Procedure: as §1, §2

[2] = tested on: Clavibacter michiganensis subsp. michiganensis VKM Ac-1403; test: Growth inhibition of Cl. michiganensis in microtiter plates; assay type: cell-based; conditions: inhibition curves (Figure 4)
Procedure: as §1
The antimicrobial activity of synthetic peptides was tested against the yeasts Candida albicans VKM Y-2994 and Cryptococcus neoformans VKM Y-2755, the bacteria Pseudomonas savastanoi pv. savastanoi VKM B-1546, Pectobacterium carotovorum subsp. carotovorum VKM B-1247 and Clavibacter michiganensis subsp. michiganensis VKM Ac-1403, and four Fusarium species: F. culmorum VKM F-2303, F. oxysporum VKM F-137, F. solani VKM F-142 and F. verticillioides VKM F-670. All cultures were obtained from the All-Russian Collection of Microorganisms (VKM). […] The antimicrobial activity of the peptides was measured in immunoassay microtiter plates according to the protocol of Broekaert et al.. […] The plates were incubated at 30 °C for 24 h, and the absorbance of the suspension was measured on an Efos 9305 spectrophotometer (Sapphire, Moscow, Russia) at 594 nm. […] After 38 h of incubation, the absorbance was recorded at 595 nm on a FilterMax F5 Multi-Mode Microplate Reader (Molecular Devices, San Jose, CA, USA). […]
as §4, with “6.1 software (StatSoft Inc., Tulsa, OK, USA).” left out

[3] = tested on: Pseudomonas savastanoi pv. savastanoi VKM B-1546; assay type: cell-based; conditions: 300 µM peptide; 30 °C, 24 h, absorbance 594 nm; vs control without peptide; triplicate, mean
Procedure: as §1, §3, §4

[4] = tested on: Cryptococcus neoformans VKM Y-2755; assay type: cell-based; conditions: inhibition curves (Figure 4)
Procedure: as §1, §3, §4

Cr. neoformans cells = test: Propidium iodide staining, fluorescence microscopy; assay type: cell-based, Cryptococcus neoformans; conditions: peptide 300 µM, 30 °C, 1 h, 0.03 mM PI 15 min
Procedure: (§5) Their ability to disturb the integrity of pathogen membranes was assayed by staining with propidium iodide of C. albicans and Cr. neoformans cells preliminarily incubated with the peptides. The results were visualized by fluorescent microscopy and quantified by flow cytometry (Figure 5, Figure 6 and Figure 7).
(§6) Staining of yeast cells with propidium iodide in the presence of the γ-core peptides was carried out according to the protocol described earlier. C. albicans or Cr. neoformans cells (24 h culture in YPD-P at a cell concentration of 2 × 10^8/mL) were incubated with the peptide at a concentration of 300 µM at 30 °C for 1 h. After incubation, 1 mL of the cells was stained with 0.03 mM propidium iodide (Sigma, St. Louis, MO, USA). The staining proceeded for 15 min at 30 °C. The fluorescence was recorded on an AXIO Imager A1 fluorescence microscope (ZEISS, Göttingen, Germany) using a Zeiss filter set 56 HE.

C. albicans cells = test: Propidium iodide staining, fluorescence microscopy; assay type: cell-based, Candida albicans; conditions: peptide 300 µM, 30 °C, 1 h, 0.03 mM PI 15 min
Procedure: as §5, §6

## CC[C@H](C)[C@H](NC(=O)[C@@H](NC(=O)[C@H](Cc1c[nH]cn1)NC(=O)[C@@H](NC(=O)[C@H](C)NC(=O)[C@@H](NC(=O)[C@H](CS)NC(=O)[C@H](CS)NC(=O)CNC(=O)[C@@H](N)CO)[C@@H](C)O)C(C)C)[C@@H](C)O)C(=O)NCC(=O)N[C@@H](CCCCN)C(=O)N[C@@H](CCC(N)=O)C(=O)N[C@@H](CO)C(=O)N1CCC[C@H]1C(=O)N[C@@H](CCCCN)C(=O)N[C@@H](CS)C(=O)O [TkLTPd5.6_59-75] (H-SGCCTAVHTIGKQSPKC-OH; N-terminus and C-terminus assumed)
F. oxysporum VKM F-137
  Pathogen inhibition, % (F. oxysporum): inactive
F. culmorum VKM F-2303
  Pathogen inhibition, % (F. culmorum): inactive
[1]
  Pathogen inhibition, % (F. verticillioides): inactive
F. solani VKM F-142
  Pathogen inhibition, % (F. solani): inactive

## C[C@H](NC(=O)[C@H](CCCNC(=N)N)NC(=O)[C@H](CCCCN)NC(=O)[C@H](CS)NC(=O)[C@H](Cc1ccccc1)NC(=O)[C@H](CS)NC(=O)[C@H](CCCCN)NC(=O)[C@H](CCCNC(=N)N)NC(=O)[C@H](C)NC(=O)[C@H](Cc1ccccc1)NC(=O)[C@H](CC(N)=O)NC(=O)[C@H](Cc1c[nH]cn1)NC(=O)[C@@H](NC(=O)[C@H](Cc1c[nH]cn1)NC(=O)[C@H](CS)NC(=O)[C@H](CCC(=O)O)NC(=O)CN)[C@@H](C)O)C(=O)N[C@@H](CS)C(=O)O [DEFL1-36_65-82] (H-GECHTHNFARKCFCKRAC-OH; N-terminus and C-terminus assumed)
[2]; peptide 100 µM
  Inhibition of Cl. michiganensis at 100 µM: complete inhibition
[3]
  Pathogen inhibition, % (Ps. savastanoi): failed to suppress
[4]; peptide 50 µM
  Inhibition of Cr. neoformans at 50 µM: complete inhibition

## C[C@H](N)C(=O)N[C@@H](CS)C(=O)N1CCC[C@H]1C(=O)NCC(=O)N[C@@H](C)C(=O)N[C@@H](CS)C(=O)N1CCC[C@H]1C(=O)N[C@@H](C)C(=O)N1CCC[C@H]1C(=O)NCC(=O)NCC(=O)N[C@@H](CO)C(=O)N[C@@H](Cc1ccc(O)cc1)C(=O)N[C@H](C(=O)N[C@@H](CC(N)=O)C(=O)N[C@@H](CCCNC(=N)N)C(=O)NCC(=O)N[C@@H](CS)C(=O)N[C@@H](CCC(N)=O)C(=O)N[C@@H](CCCCN)C(=O)N[C@@H](CCCCN)C(=O)N[C@@H](Cc1ccc(O)cc1)C(=O)N[C@@H](CCC(N)=O)C(=O)N[C@@H](CS)C(=O)N[C@@H](CCCNC(=N)N)C(=O)O)[C@@H](C)O [DEFL4-20_86-110] (H-ACPGACPAPGGSYTNRGCQKKYQCR-OH; N-terminus and C-terminus assumed)
[2]; highest tested concentration of 300 µM
  Inhibition of Cl. michiganensis at the highest tested concentration: 91%
Cr. neoformans cells
  Membrane permeabilization of Cr. neoformans cells (PI staining): induced membrane permeabilization
C. albicans cells
  Membrane permeabilization of C. albicans cells (PI staining): induced membrane permeabilization
[4]; highest tested concentration (300 µM)
  Inhibition of Cr. neoformans at the highest tested concentration: 95%
